Experimental data from patent US20050152847A1, “Novel formulation” (priority 2002, published 2005).
Structures can show the parent of a compound that is named as a salt.

Key:
stable asthma patients = details: fifteen stable asthma patients; lactose dry powder alone; no dosage data given; cited from earlier work
[1] = iso-osmotic with serum/saline; cited from earlier work
[2] = Concentration of aqueous solution iso-osmotic with serum/saline; format: physicochemical; details: expected from number of molecules, not measured
Text: We preferably select an excipient with a concentration of at least >5.5%, preferably >7%—compounds that could be regarded as weak osmolytic or non-osmolytic active compounds—teaching away from WO 00/36915. The selected concentration values are based upon the clinical results presented for lactose and mannitol. The physiological condition is pH 7.4 and 276 mOsm.
The osmotic pressure is proportional to the concentration of the solute for nonelectrolytes. The osmotic pressures of solutions of different nonelectrolytes are proportional to the number of molecules in each solution. This means—when having the same amount in grams—a disaccharide will have about half the osmotic pressure as a monosaccharide, which could also be seen in table 1. This type of generalisations could not be used for electrolytes. All disaccharides (e.g. trehalose) would be expected to have an osmotic pressure corresponding to a solution of at least >7% and trisaccharides (e.g. melezitose, raffinose) needed higher concentration in order to be iso-osmotic with a saline solution. The carbohydrate myo-inositol would be expected to have a concentration of less than 5% for iso-osmolytic activity with saline.

[3] = cited from earlier work
[4] = cited from earlier work; remark: listed apart in the source
[5] = generally regarded; cited from earlier work

Which results are given for `OC[C@H]1O[C@@H](O[C@H]2[C@H](O)[C@@H](O)C(O)O[C@@H]2CO)[C@H](O)[C@@H](O)[C@H]1O` (stereo partly drawn) [Lactose]?
Bronchoconstriction after inhalation of dry powder (stable asthma patients): caused bronchoconstriction; Concentration of aqueous solution iso-osmotic with serum (%) [1]: 9.8%

Which “Expected concentration of solution iso-osmotic with saline” value [2] does the source give for `O[C@H]1[C@H](O)[C@@H](O)[C@H](O)[C@@H](O)[C@H]1O` [myo-inositol] here?
Its value is “less than 5%”.

With `OC[C@@H](O)[C@@H](O)[C@H](O)[C@@H](O)CO` [Sorbitol] as the molecule, how does the “Concentration of aqueous solution iso-osmotic with serum (%)” value (shortened to “Concentration … (%)”) [1] read?
The value was 5.5%.

With `CCN(CC)CC(=O)Nc1c(C)cccc1C` [Lidocaine-HCl, reference compound] as the molecule, how does the “Concentration … (%)” value [1] read?
The value was 4.4%.

For `O=C[C@H](O)[C@@H](O)[C@@H](O)[C@H](O)CO` [Galactose], which “Concentration … (%)” value [1] is on record?
Its value is 4.9%.

With `[Cl-].[Na+]` [Sodium chloride] as the molecule, how does the “Concentration … (%)” value [1] read?
The value was 0.9%.

With `OC[C@@H](O)[C@@H](O[C@H]1O[C@H](CO)[C@@H](O)[C@H](O)[C@H]1O)[C@H](O)[C@@H](O)CO` [Maltitol] as the molecule, how does the “Relative humidity at which moisture is absorbed” value ([3]; 20° C.) read?
The value was ≥ 89%.

What about the “Stability of water solution” value ([4]; pH 4-9 even at higher temperatures) of the same molecule?
The value was “very stable”.

And the “Stability of water solution (time stable)” value ([4]; room temperature and pH 2-9)?
The value was “at least 2 years”.

What about the “Toxicity, allergenicity, irritancy” value [5] of the same molecule?
The value was “nontoxic, nonallergenic and nonirritant”.

What about the “Concentration … (%)” value [1] of the same molecule?
Its value is 10%.

Which “Concentration … (%)” value [1] does the source give for `OC[C@@H](O)[C@@H](O)[C@H](O)[C@H](O)CO` [Mannitol] here?
Its value is 5.1%.

With `Cc1cc(C(C)(C)C)c(O)c(C)c1CC1=NCCN1.Cl` [Oxymethazoline-HCl, reference compound] as the molecule, how does the “Concentration … (%)” value [1] read?
Its value is 4.9%.

For `O=C1O[C@H]([C@@H](O)CO)C(O)=C1O` [Ascorbic acid], which “Concentration … (%)” value [1] is on record?
Its value is 5.9%.

With `O=C1O[C@H]([C@@H](O)CO)C([O-])=C1O.[Na+]` [Sodium ascorbate] as the molecule, how does the “Concentration … (%)” value [1] read?
Its value is 3.0%.

Which “Concentration … (%)” value [1] does the source give for `OC[C@@H](O)[C@H](O)[C@@H](O)CO` [Xylitol] here?
The value was 4.6%.

Which “Concentration … (%)” value [1] does the source give for `OC[C@@H](O)[C@@H](O[C@@H]1O[C@H](CO)[C@H](O)[C@H](O)[C@H]1O)[C@H](O)[C@@H](O)CO` [Lactitol] here?
The value was 7%.

For `O=C(CO)[C@@H](O)[C@H](O)[C@H](O)CO` [Fructose], which “Concentration … (%)” value [1] is on record?
The value was 5.1%.

With `OC[C@H]1O[C@@](CO)(O[C@H]2O[C@H](CO)[C@@H](O)[C@H](O)[C@H]2O)[C@@H](O)[C@@H]1O` [Sucrose] as the molecule, how does the Moisture sensitivity ([3]; submitted to humidity) read?
The Moisture sensitivity was “very moisture sensitive”.

What about the “Concentration … (%)” value [1] of the same molecule?
Its value is 9.3%.
